Data on 9 compounds can be found in patent US4136163A, “P-Menthane carboxamides having a physiological cooling effect” (Wilkinson Sword Limited, priority 1971, dated 1979).

Common to all, as to type: in vivo, human
In experiment [1] the test system is cold receptors. Description: Cooling effect of consumer product in the mouth / on the tongue. As for the experimental part:
To the compositions was added 0.1% of N-n-propyl-p-menthane-3-carboxamide.
Shortly before completion of the blending operation 0.5% by weight of N-(p-menth-3-oyl) morpholine was added to the blender. […]
N-(2-hydroxy-n-propyl)-p-menthane-3-carboxamide was added to a proprietary gin in an amount of 0.08%.
99.5% sucrose and 0.5% citric acid were carefully fused together in the presence of a trace of water. Just before casting the melt onto a chilled plate 0.13% of N,N-dimethyl-p-menthane-3-carboxamide were repidly stirred in. The melt was then cast.
Water was added to icing sugar at 50° C to form a stiff paste. 0.05% of N-ethyl-p-menthane-3-carboxamide was then stirred into a paste and the mixture allowed to set. […]
A proprietary ice cream mixture was mixed in accordance with the manufactures instructions. Shortly before freezing N-p-menth-3-oyl-β-aminopropionic acid n-propyl ester was added in an amount of 0.05%. […]

Experiment [2] concerns cold receptors. Description: Threshold test: minimum quantity of compound on filter paper square on tongue giving a noticeable cooling effect, selected panel of 6 people. Particulars: panel of 6 people, cooling reported 50% of the time. The source says: For example, a controlling factor in the onset of cooling effect, its intensity and longevity will be the rate of penetration of the compounds through the epidermis and this will vary in different locations on the human body.
It will also benoted that the described test procedure is done on a statistical basis. This is necessary since sensitivity to these compounds will vary not only from compound to compound and from one part of the body to another, but also from one individual to another. Tests of this nature are commonly used in the testing of the organoleptic properties, e.g. taste, smell etc. of organic and inorganic compounds, see Kirk-Othmer: Encyclopedia of Chemical Technology, 2nd. Ed.
The following test procedure is aimed at determining the minimum quantity of the test compound required to produce a noticeable cooling effect on a person of average sensitivity, this minimum quantity being termed the threshold for that particular compound. The tests are carried out on a selected panel of 6 people of median sensitivity to 1-menthol.
To select a test panel of average sensitivity the following procedure is used. Known quantities of 1-menthol in solution in petroleum ether (bp.40-60) are placed on 5 mm. squares of filter paper, whereafter the solvent is allowed to evaporate. A panel of observers is enrolled and asked to place one impregnated square at a time on the tongue and to report on the presence or absence of a cooling effect. […] Conveniently, one starts with squares containing 2.0 μg. 1-menthol, the amount on each successive square being half that of the preceding square, i.e. the second test square will contain 1.0 μg, the third 0.5 μg and so on. Each quantity is tested on the tongue at least 10 times. In this way, the thresholds to cold receptor stimulus by 1-menthol are determined for each individual of the panel, the threshold for each individual being that amount of 1-menthol for which, in a series of not less than 10 test applications, a cooling effect is reported 50% of the time.
To test the activity of compounds according to this invention, the above procedure is repeated using only the 6 selected panel members of average sensitivity to 1-menthol. The individual thresholds for each test compound on each of the 6 selected panel members are determined and averaged. Those compounds whose average threshold on the select test panel is 100 μg or less are regarded as having cooling activity in accordance with this invention.

Experiment [3] relates to cold receptors. Description: Cooling effect of consumer product applied to skin (face, scalp, lips, forehead). How it is done:
Into two separate samples of the base lotion were added 2.0% by weight based on the total composition of N-ethyl-p-menthane-3-carboxamide and N,N-dimethyl-p-menthane-3-carboxamide, each into a different one of the two samples.
To the recipe was added 3.0%, based on the total composition of N-p-menth-3-oylglycine methyl ester. […]
Sodium lauryl ether sulphate, 10 g., was dispersed in 90 g. water in a high speed mill. To the dispersion was added 3.3% by weight of N-(2-hydroxy-n-propyl)-p-menthane-3-carboxamide. […]
The sodium stearate was dissolved by stirring in a warm mixture of the ethanol propylene glycol and water. To the solution was added the perfume and 3.0% of N-(2-hydroxy-n-propyl)-p-menthane-3-carboxamide and the mixture then allowed to solidify into a waxy cake. […]
This Example illustrates now the physiological cooling effect of the compounds of this invention varies according to the locality of application.
In the course of grinding there was added 3.0% of N-n-propyl-p-menthane-3-carboxamide. […]
To this liquid was added 1.0% of N-ethyl-p-menthane-3-carboxamide. A paper tissue was then soaked in the liquid.

For the compound `CC1CCC(C(C)C)C(C(=O)NC(C)(C)CO)C1` (stereo not drawn) [H, --C(CH3)2 CH2 OH, N-(1,1-dimethyl-2-hydroxyethyl)-p-menthane-3-carboxamide], in the experiment with cold receptors [1] (Example 14, soft drink, 0.02% in concentrate, diluted with water), the cooling effect entry is “pleasantly cool after-effect”. The “Threshold (average minimum quantity to produce a noticeable cooling effect)” value (shortened to “Threshold”) with cold receptors [2] came out at 0.4 µg.
Regarding `CC1CCC(C(C)C)C(C(=O)N(C)C)C1` (stereo not drawn) [--CH3, --CH3, N,N-dimethyl-p-menthane-3-carboxamide], the cooling effect entry in the experiment with cold receptors [1] (Example 16, boiled sweet, 0.13%, mouth) is given as “marked cooling effect on the mouth”; in the experiment on cold receptors [3] (Example 1, aerosol shaving soap, 1.0%, face) it was “a fresh cool sensation was distinctly noticeable on the face”; with cold receptors [3] (Example 2, after shave lotion, 2.0%, face) it was “a clearly noticeable cooling effect became apparent after a short interval of time”. Further, in the experiment on cold receptors [2], the “Threshold” value came to 1.5 µg.
On to `CCCOC(=O)CCNC(=O)C1CC(C)CCC1C(C)C` (stereo not drawn) [N-p-menth-3-oyl-β-aminopropionic acid n-propyl ester], for which the cooling effect entry in the experiment with cold receptors [1] (Example 19, ice cream, 0.05%) is recorded as “a cooling effect is noticeable which persists after the cooling effect attributable to the temperature of the ice cream has disappeared”.
Regarding `CCCOC(=O)CNC(=O)C1CC(C)CCC1C(C)C` (stereo not drawn) [H, --CH2 COOC3 H7 (n), N-(p-menth-3-oyl)glycine n-propyl ester], in the experiment on cold receptors [2], the “Threshold” value worked out at 0.3 µg. In the experiment with cold receptors [3] (Example 22, antipruritic ointment, 0.1%, skin), the cooling effect entry is “soothing effect on the skin accompanied by a noticeable cooling effect”.
As for `CC1CCC(C(C)C)C(C(=O)N(CCO)CCO)C1` (stereo not drawn) [--CH2 CH2 OH, --CH2 CH2 OH, N,N-bis(2-hydroxyethyl)-p-menthane-3-carboxamide], the cooling effect entry in the experiment on cold receptors [1] (Example 18, chewing gum, 5.0%, mouth) is reported as “marked cooling effect in the mouth”. For the same compound, in the experiment on cold receptors [2], the “Threshold” value came to 50 µg.
Regarding `CNC(=O)C1CC(C)CCC1C(C)C` (stereo not drawn) [H, --CH3, N-methyl-p-menthane-3-carboxamide], the “Threshold” value in the experiment on cold receptors [2] was 1.1 µg. In addition, the cooling effect result with cold receptors [3] (Example 4, deodorant composition, 1.3%, skin) is on record as “definte cooling sensation on the skin”.
`CC(O)CNC(=O)C1CC(C)CCC1C(C)C` (stereo not drawn) [H, --CH2 CH(OH)CH3, N-(2-hydroxy-n-propyl)-p-menthane-3-carboxamide]: the cooling effect result in the experiment with cold receptors [1] (Example 15, gin, 0.08%, mouth) is “a very strong cooling after-effect is obtained in the mouth”; in the experiment with cold receptors [3] (Example 5, hair shampoo, 3.3%, scalp) it was “a fresh, cool sensation is noticed on the scalp”; in the experiment on cold receptors [3] (Example 7, solid cologne, 3.0%, forehead), “a very strong and long lasting cooling effect is obtained”. The “Threshold” value in the experiment on cold receptors [2] stood at 5.5 µg.
As for `CC1CCC(C(C)C)C(C(=O)N2CCOCC2)C1` (stereo not drawn) [--CH2 CH2 OCH2 CH2 --, N-(p-menth-3-oyl)morpholine], in the experiment with cold receptors [1] (Example 11, applied to the mucous membranes of the mouth), the “cooling effect on mucous membranes of the mouth” value is listed as “very pronounced”. For the same compound, the cooling effect entry in the experiment with cold receptors [1] (Example 11, toothpaste, 0.5%, mouth) is given as “a strong cooling effect is noticed in the mouth”. Besides, the “Threshold” value in the experiment with cold receptors [2] came out at 5.5 µg. Also, the “cooling effect on skin” value with cold receptors [3] (Example 11, applied to the skin as an alcoholic solution) is recorded as “relatively weak”.
Consider `CCCNC(=O)C1CC(C)CCC1C(C)C` (stereo not drawn) [H, --C3 H7 (n), N-n-propyl-p-menthane-3-carboxamide], for which the cooling effect result was “a strong and long lasting cooling effect is obtained in the mouth” with cold receptors [1] (Example 10, mouthwash concentrate, 0.1%, diluted with approximately 10 times its own volume of water); “freshening and cooling effect” in the experiment with cold receptors [3] (Example 13, talcum powder, 3.0%). Moreover, the “Threshold” value in the experiment with cold receptors [2] came to 0.8 µg.
